Measurements published in US12509734B2, “Systems and methods to assess microbiomes and treatments thereof” (priority 2013, dated 2025).

Assays:
bacterial vaginosis (BV) [1] = experiment: Clinical assessment of BV patients after therapy (Amsel criteria, Nugent score, recurrence); type: in vivo, human
Text: Patients. Five African American participants were followed at the Vaginitis Clinic at Wayne State University and had been treated for recurrent episodes symptomatic bouts of BV. Patients were enrolled after protocol explanation and written informed consent was obtained. The study was endorsed by the Human Investigational Review Board of Wayne State University. At the time of enrollment, patients were diagnosed with florid symptomatic acute BV, characterized by the presence of at least 3 of the 4 Amsel criteria (homogeneous vaginal discharge, pH elevated above 4.5, clue cells>20%, positive whiff test) and Nugent scores of at least 8.
At this immediate PT visit, patients were given Catch-All Sample Collection Swabs (Epicentre Biotechnologies, Madison, WI) and 15 mL conical tubes for vaginal specimen self-collection. […] Samples from a previously characterized group of recurrent BV patients, sampled before and after treatment, were also evaluated by Lb-qPCR. Reichman et al., Sexually Transmitted Diseases 36: 732-734, 2009.

[2] = tested on: vaginal microbiota (PB-primer target groups); experiment: PB-qPCR microbial profiles of vaginal swabs of recurrent BV patients (Example 2); type: in vivo, human
Description: Sample processing, DNA extraction, and qPCR. Microbial gDNA was purified from swabs in 1-2 ml saline or lysis solution by a high SDS/alkaline lysis—phenol extraction protocol as described previously in Lambert and resuspended in 200 μL TE (10 mM Tris, pH 8, 1 mM EDTA). The lysed bacterial gDNA is stable for over one month at room temperature in lysis solution buffer (data not shown) and this buffer prevents changes in titer due to possible stability issues with different strains of bacteria in saline. An aliquot of purified DNA was assayed by qPCR with 18 universal and phylogenetic branch-inclusive (PB) primers and PCR conditions as described previously in Lambert. Additional primers, targeting the Enterococcus genus and its cytolysin gene CyILL, are provided in SEQ ID NOs: 92 and 95 (Enterococcus), and 93 and 96 (cytolysin gene). Each PB-primer targets a branch of the phylogenetic tree, from whole phyla to family or genus, and is far more inclusive than species-specific primers. Relative LB composition of the vaginal microbiome was determined by dividing the Lactobacillaceae titer by the sum of all PB-primers and by using the disclosed LB-blocker approach. Briefly, the LB-blocker approach uses the difference between the quantitative cycles (Cq) of two parallel qPCR reactions with universal primers targeting the 16S rRNA gene, when one of the reactions is in the presence of LB spp.-specific blocking oligomers (LB-blockers) that have been chemically modified to prevent extension and that partially overlap the universal primer binding site, effectively rendering the LB DNA “invisible” to the universal PCR, even when LB gDNA is present at great excess compared to non-LB gDNA, as is common in healthy and PT samples. PB-primers amplicons were selectively sequenced to confirm they were correctly targeted and to identify the dominant species. These were “cleaned” enzymatically as described in Lambert, and Sanger sequenced at Functional Biosciences (Madison, WI). Sequences were uploaded to Ribosomal Database Project II using its Pipeline function; species were identified based on phylogenetic trees constructed in Molecular Evolutionary Genetics Analysis (MEGA5) software.
Calculations. Cq values from qPCR reactions were converted to molecules per reaction by comparing sample Cq values to a standard curve from the same run of Cq values derived from dilutions of an amplicon of known target of known concentration. Molecules per reaction were converted to cells per swab, assuming an average of 5 ribosomal genes per cell and proportioned to the ratio of the volume of the sample used in the DNA prep and the amount of sample used in the qPCR reaction. Delta Cq (ΔCq) values of LB-blocked reaction pairs were calculated as Cq (blocked sample)−Cq (unblocked sample). Differences between patient groups were compared using the t test in (GraphPad software).

[3] = tested on: relative LB content of the vaginal microbiome; experiment: Lb-qPCR / LbRC: delta Cq of LB-blocked versus unblocked universal qPCR of vaginal samples; type: in vivo, human; conditions: separate group of recurrent BV patients, FIG. 11
Description: Sample processing, DNA extraction, and qPCR. Microbial gDNA was purified from swabs in 1-2 ml saline or lysis solution by a high SDS/alkaline lysis—phenol extraction protocol as described previously in Lambert and resuspended in 200 μL TE (10 mM Tris, pH 8, 1 mM EDTA). The lysed bacterial gDNA is stable for over one month at room temperature in lysis solution buffer (data not shown) and this buffer prevents changes in titer due to possible stability issues with different strains of bacteria in saline. An aliquot of purified DNA was assayed by qPCR with 18 universal and phylogenetic branch-inclusive (PB) primers and PCR conditions as described previously in Lambert. Additional primers, targeting the Enterococcus genus and its cytolysin gene CyILL, are provided in SEQ ID NOs: 92 and 95 (Enterococcus), and 93 and 96 (cytolysin gene). Each PB-primer targets a branch of the phylogenetic tree, from whole phyla to family or genus, and is far more inclusive than species-specific primers. Relative LB composition of the vaginal microbiome was determined by dividing the Lactobacillaceae titer by the sum of all PB-primers and by using the disclosed LB-blocker approach. […]
Calculations. […] Delta Cq (ΔCq) values of LB-blocked reaction pairs were calculated as Cq (blocked sample)−Cq (unblocked sample). […]

bacterial vaginosis (BV) [4] = conditions: 121 women with BV successfully treated; cited from earlier work
[5] = P2, 500 mg suppositories, 2 per day for 7 days
[6] = P5, 7 daily 500 mg vaginal suppositories
[7] = separate group of recurrent BV patients

CCC[C@@H]1C[C@@H](C(=O)N[C@@H]([C@H]2O[C@H](SC)[C@H](O)[C@@H](O)[C@H]2O)[C@H](C)Cl)N(C)C1 [clindamycin]
Nugent score after treatment (bacterial vaginosis (BV) [1]; P3, Nugent 10 before): 0
Actinobacteridae (G. vaginalis) after treatment, fold lower than P1 or P2 ([2]; P3-post): 10-100 fold
Mobiluncus share after treatment ([2]; P3-post): 0.4%
Share of all other targets after treatment ([2]; P3-post): below 0.01%

Cc1ncc([N+](=O)[O-])n1CCO [metronidazole]
Clinical status 10 days later (bacterial vaginosis (BV) [1]; P1, daily suppositories 750 mg): full remission
Day of recurrence of symptomatic BV (bacterial vaginosis (BV) [1]; P1, daily suppositories 750 mg): 94 days
Amsel status after treatment (bacterial vaginosis (BV) [1]; P1, high dose vaginal): Amsel negative
Nugent score after treatment (bacterial vaginosis (BV) [1]; P1, high dose vaginal, after first and second BV episodes): 0
Florid episodes of BV in the two previous years in spite of prophylactic therapy (bacterial vaginosis (BV) [1]; P1, vaginal 500-750 mg twice weekly): 4
Amsel status after treatment (bacterial vaginosis (BV) [1]; P2-post1, oral): Amsel negative
Nugent score after treatment (bacterial vaginosis (BV) [1]; P2-post1, oral): 0
Day symptoms were reported after second treatment (bacterial vaginosis (BV) [1]; [5]): 152 days
Response to second treatment (bacterial vaginosis (BV) [1]; [5]): recovered well
Time to recurrence after second treatment (self-reported) (bacterial vaginosis (BV) [1]; P2, 2x500 mg suppositories daily for 7 days): approximately 117 days PT
Clinical status one week later (bacterial vaginosis (BV) [1]; P2, oral 500 mg bid for 7 days): asymptomatic
Time of symptomatic recurrence after enrollment (bacterial vaginosis (BV) [1]; P2, oral 500 mg bid for 7 days): 35 days
Clinical status 21 days later (bacterial vaginosis (BV) [1]; [6]): asymptomatic in clinical remission
Nugent score 21 days later (bacterial vaginosis (BV) [1]; [6]): 4
Outcome at return within three weeks by Amsel criteria (bacterial vaginosis (BV) [1]; five recurrent BV patients, Nugent scores of 0 except Patient 5): clinical cure
Nugent average after treatment, Post A group (bacterial vaginosis (BV) [1]; [7]): 2.2±4.0
Nugent average after treatment, Post B group (bacterial vaginosis (BV) [1]; [7]): 0.8±1.2
Actinobacteridae (G. vaginalis) share after treatment ([2]; P1-post1): 2%
Lactobacillaceae share of post-treatment samples ([2]; P1-post1 and -post2, high dose vaginal): > 97%
Further fold reduction of G. vaginalis ([2]; P1-post2 versus P1-post1): ~100 fold
Actinobacteridae (G. vaginalis) share after treatment ([2]; P2-post1, oral): < 0.5%
Share of 6-8 other targets after treatment ([2]; P2-post1, oral): under 0.1%
delta Cq score after treatment, Post A group [3]: 4.1±2.2
delta Cq score after treatment, Post B group [3]: 17±6
Women who recurred within one year (bacterial vaginosis (BV) [4]): 58%
Women who returned to abnormal vaginal profiles (bacterial vaginosis (BV) [4]): 69%
